From paper PMC10891031 (2024)

Assay: plasma from a Sprague Dawley rat
Details: 37 °C, up to 15 min

H-ACGLSGLGVA-NH2
fragment found: [^18F]FNA, 5 min
